From patent US20230355599A1, “BIOMARKERS FOR CBL, AND COMPOSITIONS AND METHODS FOR THEIR USE” (NURIX THERAPEUTICS, INC., priority 2022, published 2023) come the findings set out here.

SMILES strings stand for the structures.

What all share (type): cell-based
Assay [1] relates to phosphorylated PLCγ2. Kind of assay: Phosphorylated PLCγ2 in human CD8+ T cells from whole blood in vitro (flow cytometry). The settings on record: T-cell, whole blood from six human donors, 2 hrs 37° C., anti-CD3/anti-CD28 + crosslinker 60 minutes, read-out: Average mean EC50±standard deviation, phosphorylated PLCγ2. On the procedure:
To assess these candidate clinical proximal biomarkers of Cbl-b inhibition on T cells, pharmacodynamic analysis was performed. Whole blood was obtained from human donors and incubated with increasing concentrations of Compound 23. The response to Cbl-b inhibition on phosphorylated HS1, PLCγ2, and ZAP70 was measured in CD8^+ T cells using flow cytometry. This technique is highly quantitative and can measure multiple phosphorylation markers in different cell populations within the same sample.
For pharmacodynamic analysis, whole blood was obtained from six human donors (BioIVT) and used for flow cytometry assays to evaluate phosphorylated biomarkers HS1, PLCγ2, and ZAP70 in CD8^+ T cells.
Whole blood was collected in a collection tube coated with sodium heparin. […]
(§1) Stained cells were run on an Attune NxT Acoustic Focusing Flow Cytometer (Thermo Fisher, cat. No. A29004), and data was analyzed using FlowJo (v10.6.1) and GraphPad Prism (v8.00) software. Single lymphocytes were gated for CD8^+ cells (CD45^+/CD8^+) cells, and population frequencies were calculated for each population. The data is quantified by the percent positive. […] As protein becomes phosphorylated the fluorescence increases resulting in a larger fraction of the cells entering that gate. Each population was evaluated for % positive pY759-PLCγ2, pY397-HS1 levels, pY319/Syk (Y352)-ZAP70 levels.
(In general: In flow cytometry, cells or beads pass a laser one at a time.)

For assay [2], the system named is phosphorylated HS1. As to the kind of experiment: Phosphorylated HS1 in cynomolgus macaque CD8+ T cells from whole blood in vitro (flow cytometry). The settings on record: Macaca fascicularis, T-cell, whole blood from six cynomolgus macaques, 2 hrs 37° C., 2 μg/mL anti-CD3 & anti-CD28 + crosslinker 60 minutes, read-out: Average mean EC50±standard deviation, phosphorylated HS1. On the procedure:
(§2) To assess these candidate clinical proximal biomarkers of Cbl-b inhibition on T cells, pharmacodynamic analysis was performed. Whole blood was obtained from cynomolgus macaque donors, then incubated with increasing concentrations of Compound 23. The response to Cbl-b inhibition on phosphorylated HS1, ZAP70 and PLCγ2 was measured in CD8^+ T cells using flow cytometry. This technique is highly quantitative and can measure multiple phosphorylation markers in different cell populations within the same sample.
(§3) DMSO (Dimethyl sulfoxide) was used to reconstitute Compound 23. Final concentration of DMSO was 0.05% in media for in vitro assays. […]
as §1

Assay [3] concerns phosphorylated ZAP70. As to the kind of experiment: Phosphorylated ZAP70 in cynomolgus macaque CD8+ T cells from whole blood in vitro (flow cytometry). The settings on record: Macaca fascicularis, T-cell, whole blood from six cynomolgus macaques, 2 hrs 37° C., 2 μg/mL anti-CD3 & anti-CD28 + crosslinker 60 minutes, read-out: Average mean EC50±standard deviation, phosphorylated ZAP70. On the procedure: as §2, §3, §1

Turning to `C[C@H]1CCCN(Cc2cc3c(c(C(F)(F)F)c2)CN(c2cccc([C@]4(c5nncn5C)C[C@@H](C)C4)c2)C3=O)C1` [Compound 23], the EC50 (as a rule, the concentration that produces a half-maximal response) was 74 ± 4.95 nM in assay [1], 230 ± 150 nM in assay [2] and 173 ± 177 nM in assay [3].
